Test results as given in patent publication US20260263550A1, “METHODS AND COMPOSITIONS FOR TREATING, PREVENTING, INHIBITING, AMELIORATING OR DELAYING THE ONSET OF OPHTHALMIC CONDITIONS” (Stealth BioTherapeutics Inc., priority 2021, published 2026).

Assay: in vivo
Conditions: cynomolgus monkey, sc; for concentration at 29 study day: Average Conc.
Description: Male and female cynomolgus monkeys were divided into four groups (Groups 1 to 4). Groups 1 and 4 consisted of five males and five females each and Groups 2 and 3 consisted of three males and three females each. Animals were dosed via SC injection once daily for 28 consecutive days. Group 1 animals received the control article, 0.9% sodium chloride injection, USP (saline). Group 2, 3, and 4 animals received the test article, compound of Formula IIa, at dose levels of 2, 5, and 15 mg/kg/day, respectively. Three males and three females from Groups 1 to 3, and three males and one female from Group 4 were necropsied on Day 29 (terminal necropsy). Two males and two females from Groups 1 and 4 were necropsied on Day 42 (recovery necropsy), after a 13-day treatment-free period. […] Safety endpoints included daily clinical and weekly detailed observations, food evaluation, dermal scoring of the injection site, body weight, ophthalmology, electrocardiography (ECG), hematology, coagulation, serum chemistry, and urinalysis. Blood was collected at multiple time points. At termination, gross observations and organ weights were recorded, and eye/optic nerve tissue samples were collected for microscopic evaluation and biodistribution assays.
Preparation of dose formulations. Dose formulation preparations were performed once weekly in a biosafety cabinet using clean techniques. The test article dosing formulations were prepared by diluting the 100 mg/mL (nominal concentration) compound of Formula IIa stock solution in the appropriate volume of 0.9% Sodium Chloride Injection, USP. All formulations (including Group 1, control) were filtered using a 0.22 μm polyethersulfone (PES) syringe filter. Osmolarity and pH were measured and recorded, then the dosing formulations were aliquoted into a sufficient number of sterile glass vials for daily use over one week. All aliquots were stored in a refrigerator set to maintain 4° C. and used within 7 days after preparation.
Test system. The test system was cynomolgus monkey, originating from Cambodia, supplied by Worldwide Primates. The animals were identified by unique skin tattoos. The body weight of the animals ranged from 1.6. to 2.4 kg at initiation of dosing and the ages ranged from 2.0 to 3.1 years at the initiation of dosing. For acclimation, there were 18 males and 18 females. For dosing, 16 males and 16 females were used.
Administration of dose formulations. The dose formulations were administered to appropriate animals by subcutaneous injection into the interscapular area once daily for 28 days using disposable syringe and needle. Four subcutaneous dose sites (upper left/right and lower left/right) were designated on the dorsal back using permanent marker or tattoo placed during acclimation avoiding the spine, with no edges overlapping and with a maximum practical distance between the dose sites. The designated dosing sites were shaved, and injection was rotated among them. If a designated site was not suitable for administration (e.g., due to wound, scab/crust, etc.), the next suitable site was used for dosing and appropriately documented.
Necropsy. Animals were fasted overnight prior to termination. Following blood collection on the day of necropsy, animals were sedated, weighed, and euthanized by an overdose of euthanasia solution, followed by whole body perfusion flush with phosphate buffered saline. Animals were subjected to a complete macroscopic examination and tissue collection. Bone marrow smears were prepared from the sternum at scheduled necropsy. Two females were necropsied early on Days 25 and 27. Blood samples (hematology, coagulation, and serum chemistry) were collected prior to euthanasia, after which a complete macroscopic examination was performed.
Tissue collection and preservation. Left eyes and optic nerves were fixed in a solution of 2.5% NBF and 3% Glutaraldehyde, and right eyes and optic nerves were frozen for biodistribution.
Biodistribution analysis—right eye and optic nerve. […]

[1] = male, 15 mg/kg/day, Average Concentration, Aqueous Humor
[2] = male, 15 mg/kg/day, Average Concentration, Choroid
[3] = male, 15 mg/kg/day, Average Concentration, Conjunctiva
[4] = male, 15 mg/kg/day, Average Concentration, Cornea
[5] = male, 15 mg/kg/day, Average Concentration, ICB (iris/ciliary body)
[6] = male, 15 mg/kg/day, Average Concentration, Optic Nerve
[7] = male, 15 mg/kg/day, Average Concentration, Retina
[8] = male, 15 mg/kg/day, Average Concentration, Sclera
[9] = male, 15 mg/kg/day, Average Concentration, Vitreous Humor

Cc1cc(O)cc(C)c1C[C@H](NC(=O)[C@H](N)CCCNC(=N)N)C(=O)N[C@@H](CCCCN)c1nc(Cc2ccccc2)no1.Cl.Cl.Cl [Formula IIa, (R)-2-amino-N—((S)-1-(((S)-5-amino-1-(3-benzyl-1,2,4-oxadiazol-5-yl)pentyl)amino)-3-(4-hydroxy-2,6-dimethylphenyl)-1-oxopropan-2-yl)-5-guanidinopentanamide]
Average Concentration (2 mg/kg): <LLOQ
Conc. (2 mg/kg): <LLOQ
Concentration (2 mg/kg): <LLOQ
Average Concentration (5 mg/kg): <LLOQ
Conc. (5 mg/kg): <LLOQ
Concentration (5 mg/kg): <LLOQ
Average Concentration (15 mg/kg): <LLOQ
Conc. (15 mg/kg): <LLOQ
Concentration (15 mg/kg): <LLOQ
concentration at 29 study day (female, 2 mg/kg): 17500 ng/g
concentration at 29 day (female, 2 mg/kg/day, Average Concentration, Aqueous Humor): 2.76 ng/mL
concentration at 29 day (female, 2 mg/kg/day, Average Concentration, Choroid): 2500 ng/g
concentration at 29 day (female, 2 mg/kg/day, Average Concentration, Conjunctiva): 835 ng/g
concentration at 29 day (female, 2 mg/kg/day, Average Concentration, Cornea): 27.2 ng/g
concentration at 29 day (female, 2 mg/kg/day, Average Concentration, ICB (iris/ciliary body)): 375 ng/g
concentration at 29 day (female, 2 mg/kg/day, Average Concentration, Optic Nerve): 17500 ng/g
concentration at 29 day (female, 2 mg/kg/day, Average Concentration, Retina): 7390 ng/g
concentration at 29 day (female, 2 mg/kg/day, Average Concentration, Sclera): 446 ng/g
concentration at 29 day (female, 2 mg/kg/day, Average Concentration, Vitreous Humor): 13.1 ng/mL
concentration at 29 day (female, 2 mg/kg/day, Concentration (ng/g), Cornea (individual animals)): 53.4 ng/g
concentration at 29 day (female, 2 mg/kg/day, Concentration (ng/mL), Cornea (individual animals)): 2.67 ng/mL
concentration at 29 study day (female, 5 mg/kg): 31800 ng/g
concentration at 29 day (female, 5 mg/kg/day, Average Concentration, Aqueous Humor): 25.9 ng/mL
concentration at 29 day (female, 5 mg/kg/day, Average Concentration, Choroid): 3210 ng/g
concentration at 29 day (female, 5 mg/kg/day, Average Concentration, Conjunctiva): 1770 ng/g
concentration at 29 day (female, 5 mg/kg/day, Average Concentration, Cornea): 56.1 ng/g
concentration at 29 day (female, 5 mg/kg/day, Average Concentration, ICB (iris/ciliary body)): 800 ng/g
concentration at 29 day (female, 5 mg/kg/day, Average Concentration, Optic Nerve): 31800 ng/g
concentration at 29 day (female, 5 mg/kg/day, Average Concentration, Retina): 20100 ng/g
concentration at 29 day (female, 5 mg/kg/day, Average Concentration, Sclera): 837 ng/g
concentration at 29 day (female, 5 mg/kg/day, Average Concentration, Vitreous Humor): 23.3 ng/mL
concentration at 42 day (female, 15 mg/kg/day, Average Concentration, Aqueous Humor): 9.83 ng/mL
concentration at 42 day (female, 15 mg/kg/day, Average Concentration, Choroid): 27600 ng/g
concentration at 42 day (female, 15 mg/kg/day, Average Concentration, Conjunctiva): 4540 ng/g
concentration at 42 day (female, 15 mg/kg/day, Average Concentration, Cornea): 149 ng/g
concentration at 42 day (female, 15 mg/kg/day, Average Concentration, ICB (iris/ciliary body)): 3160 ng/g
concentration at 42 day (female, 15 mg/kg/day, Average Concentration, Optic Nerve): 40800 ng/g
concentration at 42 day (female, 15 mg/kg/day, Average Concentration, Retina): 67000 ng/g
concentration at 42 day (female, 15 mg/kg/day, Average Concentration, Sclera): 4700 ng/g
concentration at 42 day (female, 15 mg/kg/day, Average Concentration, Vitreous Humor): 62.7 ng/mL
concentration at 42 day (female, 15 mg/kg/day, Concentration (ng/g), Sclera (individual animals)): 5140 ng/g
concentration at 29 study day (male, 2 mg/kg): 22000 ng/g
Concentration, Aqueous Humor (individual animals) (male, 2 mg/kg/day, 29 day): 2.94 ng/mL
concentration at 29 day (male, 2 mg/kg/day, Average Concentration, Aqueous Humor): 2.31 ng/mL
concentration at 29 day (male, 2 mg/kg/day, Average Concentration, Choroid): 1890 ng/g
concentration at 29 day (male, 2 mg/kg/day, Average Concentration, Conjunctiva): 603 ng/g
concentration at 29 day (male, 2 mg/kg/day, Average Concentration, Cornea): 39.3 ng/g
concentration at 29 day (male, 2 mg/kg/day, Average Concentration, ICB (iris/ciliary body)): 354 ng/g
concentration at 29 day (male, 2 mg/kg/day, Average Concentration, Optic Nerve): 22000 ng/g
concentration at 29 day (male, 2 mg/kg/day, Average Concentration, Retina): 2770 ng/g
concentration at 29 day (male, 2 mg/kg/day, Average Concentration, Sclera): 701 ng/g
concentration at 29 day (male, 2 mg/kg/day, Average Concentration, Vitreous Humor): 11.2 ng/mL
concentration at 29 day (male, 2 mg/kg/day, Concentration, Aqueous Humor (individual animals)): 4 ng/mL
concentration at 29 study day (male, 5 mg/kg): 26300 ng/g
concentration at 29 day (male, 5 mg/kg/day, Average Concentration, Aqueous Humor): 5.29 ng/mL
concentration at 29 day (male, 5 mg/kg/day, Average Concentration, Choroid): 4060 ng/g
concentration at 29 day (male, 5 mg/kg/day, Average Concentration, Conjunctiva): 3560 ng/g
concentration at 29 day (male, 5 mg/kg/day, Average Concentration, Cornea): 64 ng/g
concentration at 29 day (male, 5 mg/kg/day, Average Concentration, ICB (iris/ciliary body)): 1230 ng/g
concentration at 29 day (male, 5 mg/kg/day, Average Concentration, Optic Nerve): 26300 ng/g
concentration at 29 day (male, 5 mg/kg/day, Average Concentration, Retina): 5760 ng/g
concentration at 29 day (male, 5 mg/kg/day, Average Concentration, Sclera): 1820 ng/g
concentration at 29 day (male, 5 mg/kg/day, Average Concentration, Vitreous Humor): 13.3 ng/mL
concentration at 29 day [1]: 14.5 ng/mL
concentration at 42 day [1]: 3.82 ng/mL
concentration at 29 day [2]: 8790 ng/g
concentration at 42 day [2]: 7880 ng/g
concentration at 29 day [3]: 5430 ng/g
concentration at 42 day [3]: 4380 ng/g
concentration at 29 day [4]: 195 ng/g
concentration at 42 day [4]: 34.8 ng/g
concentration at 29 day [5]: 3910 ng/g
concentration at 42 day [5]: 1410 ng/g
concentration at 29 day [6]: 60000 ng/g
concentration at 42 day [6]: 91500 ng/g
concentration at 29 day [7]: 26100 ng/g
concentration at 42 day [7]: 30200 ng/g
concentration at 29 day [8]: 2260 ng/g
concentration at 42 day [8]: 3870 ng/g
concentration at 29 day [9]: 48.8 ng/mL
concentration at 42 day [9]: 45.3 ng/mL
concentration at 42 day (male, 15 mg/kg/day, Concentration (ng/g), Cornea (individual animals)): 34.6 ng/g
concentration at 42 day (male, 15 mg/kg/day, Concentration (ng/mL), Cornea (individual animals)): 1.73 ng/mL
